Source: US6696441B1, “Inhibition of p53-induced stress response” (The Regents of the University of California, priority 2000, dated 2004)

What was measured:
[1] = tested on: malignant lymphocytes from two patients with chronic lymphocytic leukemia [CLL]; assay: Effect on B-CLL viability (PI exclusion by FACS, MTT); assay type: cell-based, human; settings: 3 days culture; viable cells by PI FACS and MTT; concentrations up to 100 micromolar; FIG. 1
Source text: (§1) The malignant lymphocytes from two patients with chronic lymphocytic leukemia [CLL] were isolated by ficoll-hypaque sedimentation and suspended at a density of 1 million cells per milliliter in RPMI 1640 medium supplemented with 10% fetal bovine serum. Two hundred microliter aliquots of cells were dispersed in the wells of culture plates containing the indicated final concentrations of either PFT-α (“PFT-open”) or IBT (PFT-closed). After 3 days culture, viable cells were enumerated by fluorescence-activated cell sorting [FACS] after staining with propidium iodide [PI]. Viable cells excluded the dye [open circles]. In addition, cell metabolism was assessed by the ability of the cells to […] the tetrazolium dye MTT [closed squares].

[2] = tested on: Chronic lymphocytic leukemia [CLL] cells; assay: Protection against spontaneous apoptosis and apoptosis induced by fludarabine (PI negative and DiOC6 high cells by FACS); assay type: cell-based, human; settings: one micromolar, 3 days culture, FIG. 2; for effect on untreated CLL cells (spontaneous apoptosis): PI negative and DiOC6 high cells
Source text: as §1
Chronic lymphocytic leukemia [CLL] cells were cultured for 3 days as described in Example 2. Some of the cultures were supplemented with one micromolar of PFT-open or PFT-closed, as indicated. In the experiment shown in the bottom panel of FIG. 2, some of the cultures also contained the cytotoxic adenine nucleoside analog fludarabine [abbreviated F-AraA]. Fludarabine is the first line treatment for CLL, and the toxicity of the drug is dependent upon the p53 pathway. To assess healthy, viable cells, staining was done with both PI, as indicated in Example 2, and with the mitochondrial dye DiOC6. Cells that were both PI negative and DIOC6 high were enumerated by FACS.

[3] = Cyclization of PFT-α to IBT in DMSO stock diluted with water, reversed phase HPLC at 25° C. over time; assay type: physicochemical
Description: (§2) The preparation of PFT-α was accomplished as shown in Scheme 1 by reacting 4-methyl-2-bromoacetophenone with 2-amino-4,5,6,7-tetrahydro-benzothiazole. Upon recrystallization of the PFT-α from isopropyl alcohol, it was noticed that PFT-α readily ring-closed completely to the imidazo[2,1-b]benzothiazole (IBT). Therefore, a subsequent investigation was undertaken to study the propensity of PFT-α to ring-close in protic solvents. […] Thus, PFT-α was dissolved in DMSO and water dilutions were made from this stock.

[4] = Ring closure of PFT-α in protic solvents at room temperature; assay type: physicochemical
Description: as §2

[5] = nmr time course of PFT-α in DMSO-d6; assay type: physicochemical; settings: time course in DMSO-d6, proton nmr
mice = settings: cited from earlier work

Structure (SMILES) | CLL survival / toxicity [1] | effect on untreated CLL cells (spontaneous apoptosis) [2] | protective effect on CLL cells treated with F-AraA (fludarabine) ([2]; with F-AraA, compared with PFT-α) | % cyclized to IBT ([3]; Time 0 h) [%] | % cyclized to IBT ([3]; Time 18 h) [%] | % cyclized to IBT ([3]; Time 48 h) [%] | propensity to ring-close in protic solvents [4] | conversion of PFT-α to IBT [5] | protection from lethal genotoxic stress (mice; 6-8 Gy of gamma radiation) | promotion of tumor formation (mice)
Cc1ccc(-c2cn3c4c(sc3n2)CCCC4)cc1 [IBT] | non-toxic | nearly equivalent effects | less protective effects | – | – | – | – | – | – | –
Cc1ccc(C(=O)Cn2c3c(sc2=N)CCCC3)cc1 [PFT-α] | dose-dependently reduced CLL survival | nearly equivalent effects | – | 5 | 28 | 42 | begins cyclizing at room temperature immediately upon dissolution in protic solvents | spontaneous conversion of PFT-α to IBT | protected mice from lethal genotoxic stress | without itself promoting the formation of tumors
